The molecules below were run against Factor D (Homo sapiens (Human), UniProt P00746) (assay: Factor D esterolytic assay (Z-Lys-SBzl substrate, DTNB, 405 nm)). Settings: Z-Lys-SBzl 1.29 mM, pH 7.5, 10% DMSO, tested a minimum of three times, read-out: Measured Ki (IC50) Value for Compounds: IC50.
Assay type: biochemical
Summary of the method: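 Thioester hydrolysis (Z-Lys-SBzl, 1.29 mM) by human Factor D ([…]) detected through DTNB color at 405 nm over 600 sec, minus 690 nm background. Buffer: 100 mM HEPES pH 7.5, 500 mM NaCl, 10% DMSO; optional room-temperature preincubation before substrate. IC50 derived from percent rate inhibition; at least three runs.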

Sequence of Factor D (P00746 26-253): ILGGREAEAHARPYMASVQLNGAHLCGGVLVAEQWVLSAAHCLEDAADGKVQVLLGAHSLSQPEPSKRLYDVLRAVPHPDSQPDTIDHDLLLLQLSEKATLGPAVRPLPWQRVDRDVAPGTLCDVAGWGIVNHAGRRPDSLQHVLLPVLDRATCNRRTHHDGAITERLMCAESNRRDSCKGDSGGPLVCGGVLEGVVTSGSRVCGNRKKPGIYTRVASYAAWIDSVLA

IC50, < 1 µM:
Cc1c(COc2ccccc2CC(=O)O)cc2ccoc2c1-c1cccc(CN)c1 [Compound 413m, 2-(2-((7-(3-(aminomethyl)phenyl)-6-methylbenzofuran-5-yl)methoxy)phenyl)acetic acid]
Cc1c(COc2ccccc2CC(=O)O)cc(-c2cccc(CN)c2)c2occc12 [Compound 413n, 2-(2-((7-(3-(aminomethyl)phenyl)-4-methylbenzofuran-5-yl)methoxy)phenyl)acetic acid]
N#Cc1ccc(CC(=O)O)c(OCc2cc(-c3cccc(CN)c3F)c3occc3c2)c1 [Compound 414b, 2-(2-((7-(3-(aminomethyl)-2-fluorophenyl)benzofuran-5-yl)methoxy)-4-cyanophenyl)acetic acid]
COCc1cc2cc(COc3cc(C)ccc3CC(=O)O)cc(-c3cccc(CN)c3)c2o1 [Compound 415e, 2-(2-((7-(3-(aminomethyl)phenyl)-2-(methoxymethyl)benzofuran-5-yl)methoxy)-4-methylphenyl)acetic acid]
COCc1cc2cc(COc3cc(C#N)ccc3CC(=O)O)cc(-c3cccc(CN)c3F)c2o1 [Compound 416d, 2-(2-((7-(3-(aminomethyl)-2-fluorophenyl)-2-(methoxymethyl)benzofuran-5-yl)methoxy)-4-cyanophenyl)acetic acid]
COCc1cc2cc(COc3cc(NC(C)=O)ccc3CC(=O)O)cc(-c3cccc(CN)c3)c2o1 [Compound 417e, 2-(4-acetamido-2-((7-(3-(aminomethyl)phenyl)-2-(methoxymethyl)benzofuran-5-yl)methoxy)phenyl)acetic acid]
NCc1cccc(-c2cc(NC(=O)N3CCC[C@H]3C(=O)NCc3cccc(Cl)c3F)cc3ccoc23)c1 [Compound 418c, (S)—N1-(7-(3-(aminomethyl)phenyl)benzofuran-5-yl)-N2-(3-chloro-2-fluorobenzyl)pyrrolidine-1,2-dicarboxamide]
Cc1cc2cc(COc3cc(C#N)ccc3CC(=O)O)cc(-c3cccc(CN)c3)c2o1 [Compound 419c, 2-(2-((7-(3-(aminomethyl)phenyl)-2-methylbenzofuran-5-yl)methoxy)-4-cyanophenyl)acetic acid]
Cc1ccc(CC(=O)O)c(OCc2cc(-c3cccc(CN)c3)c3oc(CO)cc3c2)c1 [Compound 420e, 2-(2-((7-(3-(aminomethyl)phenyl)-2-(hydroxymethyl)benzofuran-5-yl)methoxy)-4-methylphenyl)acetic acid]
CC(=O)Nc1ccc(CC(=O)O)c(OCc2cc(-c3cccc(CN)c3)c3oc(CO)cc3c2)c1 [Compound 421e, 2-(4-acetamido-2-((7-(3-(aminomethyl)phenyl)-2-(hydroxymethyl)benzofuran-5-yl)methoxy)phenyl)acetic acid]
N#Cc1ccc(CC(=O)O)c(OCc2cc(-c3cccc(CN)c3)c3oc(CO)cc3c2)c1 [Compound 422e, 2-(2-((7-(3-(aminomethyl)phenyl)-2-(hydroxymethyl)benzofuran-5-yl)methoxy)-4-cyanophenyl)acetic acid]
Cc1ccc(CC(=O)O)c(OCc2cc(-c3cccc(CN)c3)c3oc(C)cc3c2)c1 [Compound 423c, 2-(2-((7-(3-(aminomethyl)phenyl)-2-methylbenzofuran-5-yl)methoxy)-4-methylphenyl)acetic acid]
NCc1cccc(-c2cc(COc3cc(C(N)=O)ccc3CC(=O)O)cc3cc(CO)oc23)c1 [Compound 424d, 2-(2-((7-(3-(aminomethyl)phenyl)-2-(hydroxymethyl)benzofuran-5-yl)methoxy)-4-carbamoylphenyl)acetic acid]
Cc1oc2c(-c3cccc(CN)c3)cc(COc3ccccc3CC(=O)O)cc2c1Br [Compound 425f, 2-(2-((7-(3-(aminomethyl)phenyl)-3-bromo-2-methylbenzofuran-5-yl)methoxy)phenyl)acetic acid]
CC(=O)Nc1ccc(CC(=O)O)c(OCc2cc(-c3cccc(CN)c3)c3oc(C)cc3c2)c1 [Compound 426c, 2-(4-acetamido-2-((7-(3-(aminomethyl)phenyl)-2-methylbenzofuran-5-yl)methoxy)phenyl)acetic acid]
Cc1cc(CC(=O)O)c(OCc2cc(-c3cccc(CN)c3F)c3occc3c2)cc1C [Compound 427b, 2-(2-((7-(3-(aminomethyl)-2-fluorophenyl)benzofuran-5-yl)methoxy)-4,5-dimethylphenyl)acetic acid]
Cc1cc(CC(=O)O)c(OCc2cc(-c3ccnc(CN)c3)c3occc3c2)cc1C [Compound 428c, 2-(2-((7-(2-(aminomethyl)pyridin-4-yl)benzofuran-5-yl)methoxy)-4,5-dimethylphenyl)acetic acid]
Cc1cc2cc(COc3cc(C(N)=O)ccc3CC(=O)O)cc(-c3cccc(CN)c3)c2o1 [Compound 429c, 2-(2-((7-(3-(aminomethyl)phenyl)-2-methylbenzofuran-5-yl)methoxy)-4-carbamoylphenyl)acetic acid]
Cc1cc(CC(=O)O)c(OCc2cc(-c3ccnc(CN)c3F)c3occc3c2)cc1C [Compound 430c, 2-(2-((7-(2-(aminomethyl)-3-fluoropyridin-4-yl)benzofuran-5-yl)methoxy)-4,5-dimethylphenyl)acetic acid]
NCc1nccc(-c2cc(COc3ccccc3CC(=O)O)cc3ccsc23)c1F [Compound 431c, 2-(2-((7-(2-(aminomethyl)-3-fluoropyridin-4-yl)benzo[b]thiophen-5-yl)methoxy)phenyl)acetic acid]
CC(=O)Nc1ccc(CC(=O)O)c(OCc2cc(-c3cccc(CN)c3F)c3occc3c2)c1 [Compound 432c, 2-(4-acetamido-2-((7-(3-(aminomethyl)-2-fluorophenyl)benzofuran-5-yl)methoxy)phenyl)acetic acid]
N#Cc1ccc(CC(=O)O)c(OCc2cc(-c3ccnc(CN)c3)c3occc3c2)c1 [Compound 433c, 2-(2-((7-(2-(aminomethyl)pyridin-4-yl)benzofuran-5-yl)methoxy)-4-cyanophenyl)acetic acid]
N#Cc1ccc(CC(=O)O)c(OCc2cc(-c3ccnc(CN)c3F)c3occc3c2)c1 [Compound 435b, 2-(2-((7-(2-(aminomethyl)-3-fluoropyridin-4-yl)benzofuran-5-yl)methoxy)-4-cyanophenyl)acetic acid]
CC(=O)Nc1ccc(CC(=O)O)c(OCc2cc(-c3ccnc(CN)c3)c3occc3c2)c1 [Compound 437c, 2-(4-acetamido-2-((7-(2-(aminomethyl)pyridin-4-yl)benzofuran-5-yl)methoxy)phenyl)acetic acid]
CC(=O)Nc1ccc(CC(=O)O)c(OCc2cc(-c3ccnc(CN)c3F)c3occc3c2)c1 [Compound 438c, 2-(4-acetamido-2-((7-(2-(aminomethyl)-3-fluoropyridin-4-yl)benzofuran-5-yl)methoxy)phenyl)acetic acid]
COCc1cc2cc(COc3cc(C(N)=O)ccc3CC(=O)O)cc(-c3cccc(CN)c3F)c2o1 [Compound 439c, 2-(2-((7-(3-(aminomethyl)-2-fluorophenyl)-2-(methoxymethyl)benzofuran-5-yl)methoxy)-4-carbamoylphenyl)acetic acid]
COCc1cc2cc(COc3cc(CN)ccc3CC(=O)O)cc(-c3cccc(CN)c3F)c2o1 [Compound 440c, 2-(4-(aminomethyl)-2-((7-(3-(aminomethyl)-2-fluorophenyl)-2-(methoxymethyl)benzofuran-5-yl)methoxy)phenyl)acetic acid]
COCc1cc2cc(COc3cc(NC(C)=O)ccc3CC(=O)O)cc(-c3cccc(CN)c3F)c2o1 [Compound 441c, 2-(4-acetamido-2-((7-(3-(aminomethyl)-2-fluorophenyl)-2-(methoxymethyl)benzofuran-5-yl)methoxy)phenyl)acetic acid]
Cc1ccc(CC(=O)O)c(OCc2cc(-c3cccc(CN)c3)c3sccc3c2)c1 [Compound 443i, 2-(2-((7-(3-(aminomethyl)phenyl)benzo[b]thiophen-5-yl)methoxy)-4-methylphenyl)acetic acid]
COCc1cc2cc(COc3cc(C)ccc3CC(=O)O)cc(-c3cccc(CN)c3F)c2o1 [Compound 444c, 2-(2-((7-(3-(aminomethyl)-2-fluorophenyl)-2-(methoxymethyl)benzofuran-5-yl)methoxy)-4-methylphenyl)acetic acid]
COCc1cc2cc(COc3cc(CN)ccc3CC(=O)O)cc(-c3cccc(CN)c3)c2o1 [Compound 445c, 2-(4-(aminomethyl)-2-((7-(3-(aminomethyl)phenyl)-2-(methoxymethyl)benzofuran-5-yl)methoxy)phenyl)acetic acid]
NCc1cccc(-c2cc(COc3cc(CN)ccc3CC(=O)O)cc3cc(CO)oc23)c1 [Compound 446c, 2-(4-(aminomethyl)-2-((7-(3-(aminomethyl)phenyl)-2-(hydroxymethyl)benzofuran-5-yl)methoxy)phenyl)acetic acid]
COc1ccc(CC(=O)O)c(OCc2cc(-c3ccnc(CN)c3)c3ccn(C(C)C)c3c2)c1 [Compound 447d, 2-(2-((4-(2-(aminomethyl)pyridin-4-yl)-1-isopropyl-1H-indol-6-yl)methoxy)-4-methoxyphenyl)acetic acid]

Reference: patent publication US11370774B2, “Substituted benzofuran, benzopyrrole, benzothiophene, and structurally related complement inhibitors” (BioCryst Pharmaceuticals, Inc., priority 2018, dated 2022)
